Patent US12298308B2, “Neoadjuvant chemotherapy induces breast cancer metastasis through a TMEM-mediated mechanism” (Albert Einstein College of Medicine, priority 2017, dated 2025)

Tests used:
[1] = tested on: Tie2^hi/Vegf^hi macrophages; assay: Macrophage infiltration by multi-channel immunofluorescence (Iba1, Cd31, Tie2, Vegf); assay type: in vivo, mouse
From the text: The functional TMEM sites contain Tie2^hi/Vegf^hi macrophages and invasive tumor cells in perivascular regions (1), and it was independently shown that chemotherapy may promote mobilization of such Tie2^hi monocyte progenitors in primary tumors (8, 10). The Tie2^hi/Vegf^hi macrophage subpopulation was quantified herein using multi-channel immunofluorescence (IF) imaging (FIGS. 1D-F) (10, 14, 34). FIG. 1E illustrates a representative IF image of a Tie2^hi/Vegf^hi macrophage quantified using Cd31, Iba1, Vegf and Tie2 staining.
Drug Administration. The following drugs were administered in mice: Paclitaxel was given at 10 mg/Kg i.v every 5 days for 2 weeks; Doxorubicin was given at 5 mg/Kg i.v. every 5 days for 2 weeks; Cyclophosphamide was given at 120 mg/Kg i.p. only once; Rebastinib was given at 10 mg/Kg per os, every 3-4 days for 4 weeks.
Animals and Animal Procedures. MMTV-PyMT mice were bred in-house at the Albert Einstein College of Medicine (AECOM). Generation of MMTV-PyMT Mena^−/− has been described previously (28). CFP- or Dendra2-labeled mammary carcinoma cells were generated on the FVB background by co-injection of Tg(MMTV-iCRE)1jwp together with Tg(PCAG-loxp-CATstop-loxp-CFP) or Tg(loxP-stop-loxP-PDendra2)jwp plasmids, respectively, by conventional methods in the Albert Einstein Transgenic Mouse Facility. All syngeneic transplantation models were generated through orthotopic transplantation of 1 mm×1 mm tumor chunks, using tumors of 1 cm-diameter from 12-16-week old MMTV-PyMT mena−/− or mena+/+ donor mice into 5-6 week-old FVB recipients. Tumor chunks were implanted on the fourth mammary pad on the left side. The generation of the ER^− HT17 and ER^+ HT33 patient-derived xenografts has been described previously (31). Animal handling and associated procedures were approved by the Institutional Animal Care and Use Committee (IACUC). Additional information is detailed in Supplementary Methods.
Immunofluorescence. Slides were deparaffinized by melting at 60° C. in an oven equipped with a fan for 20 minutes, followed by 2× xylene treatment for 20 minutes. Slides were rehydrated and antigen retrieval was done in 1 mM EDTA (pH 8.0) or 1× citrate buffer (pH 6.0) (Diagnostic BioSystems) at 97° C. for 20 minutes in a conventional steamer. Endogenous peroxidase was blocked by using 0.3% hydrogen peroxide in water, followed by incubation of slides in a blocking buffer solution (10% FBS, 1% BSA, 0.0025% fish skin gelatin in 0.05% PBST) for 60 minutes at room temperature. The following primary antibodies were used in different combinations, depending on the experiment: chicken anti-Mena^INV (0.25 ug/mL, generated in-house in the lab of John S. Condeelis), rabbit anti-Cd31 (1:400; 77699s; Cell Signaling), rabbit anti-Vegf (1:2,000; Rb 9031-PO-A; Thermo), rat anti-Tie2 (1:100; 16-5987-82; eBioscience), rabbit anti-Iba1 (1:6,000; 019-19741; Wako), rat anti-endomucin (1:500; sc-65495; Santa Cruz), rabbit anti-TMR (1:1,000; A-6397; Life Technologies). Secondary antibody treatment was performed using HRP-conjugated antibodies, and was followed by tyramide signal amplification (TSA), using the Perkin Elmer; Opal™ 4-color Fluorescent IHC kit, according to the manufacturer's directions. All slides were imaged on the Pannoramic 250 Flash II digital whole slide scanner, using a 20×0.75NA objective lens. Image analysis was performed in ImageJ, detailed in Supplementary Methods.

[2] = tested on: Mena; assay: Mena isoform gene expression by qRT-PCR on FFPE tumors; assay type: in vivo, mouse
From the text: To test this hypothesis, qRT-PCR analysis was first performed for total Mena (panMena), Mena11a and Mena^INV on formalin-fixed paraffin-embedded (FFPE) tumors from all mouse models. […] As shown in the specific Mena^INV IF, the pattern of Mena^INV expression in PyMT mice was heterogeneous (FIG. 4F), consistent with previous observations (40). […] In addition, there was an inverse correlation for the anti-metastatic Mena11a (p<0.01, […]).
Gene Expression Analysis. Total RNA was extracted from formalin-fixed paraffin-embedded (FFPE) tissues using deparaffinization solution (Qiagen) and RNeasy FFPE Kit (Qiagen), followed by DNase treatment. An RT-PCR method SYBR Green (Qiagen) was used to measure expression levels of total Mena (PanMena), as well as of the specific Mena isoforms, Mena11a and Mena^INV, as described (29), with slight modifications, as detailed in Supplementary Methods. Mena^Calc expression has been previously defined as the expression level of all Mena isoforms combined after subtraction of Mena 11a from PanMena (2).

[3] = tested on: Mena^INV; assay: Mena^INV expression before and after NAC or paclitaxel in breast cancer patients; assay type: in vivo, human; settings: qRT-PCR in FNA biopsies before and one week after second dose of weekly paclitaxel; n=5
From the text: To further substantiate the translational importance of our preclinical data from PyMT and PDX mice receiving neoadjuvant paclitaxel into human breast cancer patients, we compared Mena^INV expression levels in Pre- and Post-NAC samples. […] Additionally, we analyzed Mena^INV expression by qRT-PCR in fine needle aspiration (FNA) biopsies taken before and one week after the second dose of weekly paclitaxel in an independent small cohort of patients (n=5).
Immunofluorescence. Slides were deparaffinized by melting at 60° C. in an oven equipped with a fan for 20 minutes, followed by 2× xylene treatment for 20 minutes. Slides were rehydrated and antigen retrieval was done in 1 mM EDTA (pH 8.0) or 1× citrate buffer (pH 6.0) (Diagnostic BioSystems) at 97° C. for 20 minutes in a conventional steamer. Endogenous peroxidase was blocked by using 0.3% hydrogen peroxide in water, followed by incubation of slides in a blocking buffer solution (10% FBS, 1% BSA, 0.0025% fish skin gelatin in 0.05% PBST) for 60 minutes at room temperature. […]

[4] = tested on: MDA-MB-213 xenografts; settings: paclitaxel-treated vs control MDA-MB-213 xenografts; cited from earlier work
[5] = Mena^-/- PyMT-CFP transplanted tumors

## CC(=O)O[C@H]1C(=O)[C@@]2(C)[C@H]([C@H](OC(=O)c3ccccc3)[C@]3(O)C[C@H](OC(=O)[C@H](O)[C@@H](NC(=O)c4ccccc4)c4ccccc4)C(C)=C1C3(C)C)[C@]1(OC(C)=O)CO[C@@H]1C[C@@H]2O [paclitaxel]
[1]; HT17-xenograft, entire tissue or perivascular niche, p<0.001
  absolute number of Iba1^+ cells: significantly increased
[1]; [5]
  perivascular Iba1^+ macrophage infiltration: increased
  perivascular Tie2^hi/Vegf^hi Iba1^+ macrophage infiltration: increased
[1]; PyMT-spontaneous model
  perivascular Tie2^hi/Vegf^hi macrophage subpopulation: significant increase
[1]; all transplantation models, p<0.01
  percentage of macrophage-specific Iba1^+ area: significant increase
[1]; paclitaxel treatment
  proportion of Tie2^hi/Vegf^hi macrophages among all Iba1^+ cells: increased
[1]; single agent vs vehicle, PyMT-transplantation and HT17 xenograft
  density of perivascular Tie2^hi/Vegf^hi macrophages: significant increases
[1]; vs vehicle-treated controls, entire tissue or perivascular niches, p<0.001
  density of Tie2^hi/Vegf^hi macrophages: significantly higher
[2]
  expression of Mena11a: not that of the anti-metastatic Mena11a
[2]; p<0.01
  expression of Mena^Calc: significantly increased
  expression of Mena^INV: significantly increased
  expression of PanMena: significantly increased
[3]
  patients with increase of Mena^INV gene-expression: 4/5
[4]
  Mena expression: significantly increased
  Mena^INV expression: significantly increased
